Reference: patent US7786142B2, “Heterocyclic compounds as pSTAT3/IL-6 inhibitors” (Orchid Research Laboratories, Ltd., priority 2005, dated 2010)

Tests used:
HCT116 cells = assay: Anti-cancer screen (MTT), HCT116 cells; type: cell-based; settings: Homo sapiens, HCT-116, HCT116, 48 hours, concentrations tested 0.01-100 μM
In short: (§1)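 Cells (5000/well) in DMEM with 10% FBS were treated for 48 hours with 0.01, 0.1, 1, 10 and 100 μM compound in triplicate. MTT read at 570 nm gave percent growth relative to untreated controls and pre-dose T0 wells, from which GI50, TGI and LC50 were derived.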

[1] = tested on: NCIH460, HCT116, MDAMB-231/U 251; assay: Anti-cancer screen, mean GI50 over the cell lines; type: cell-based
In short: as §1

IL-6 = IL-6 in culture supernatants of NCIH 460 cells (ELISA); type: cell-based, Human
Description: Human Lung Cancer cell line (NCIH 460) is used for IL-6 measurement. 5000 cells/well were seeded in a 96 well plate and incubated in CO2 incubator at 37° C. for 24 hours. After 24 hours of incubation the medium from all wells were completed removed and added 100 μl of fresh DMEM containing 10% FCS. 100 μl of different concentrations of the drug were added and incubated for 5 hours in CO2 incubator at 37° C. After 5 hours of incubation the supernatants were collected and stored at −80° C. The concentration of IL-6 in the supernatant was measured using ELISA kit and the IC50 value of the compound was determined from the dose response curve, (See Table II).

NCI H460 Xenograft = assay: In-vivo anti-cancer activity, NCI H460 xenograft model; design: species or system SCID mice; settings: NCI H460 Xenograft model, in words
Description: Experiments were carried out using 6-8 week old female athymic SCID (Severe Combined Immune Deficient) mice. The mice were kept in laminar flow rooms (housed in Individually Ventilated Cages) at constant temperature and humidity. They had free access to food and water. Tumors were obtained form ATCC and maintained by s.c. passages of tumor fragments (about 2×2×2 mm) in healthy mice according to standard reported procedures. Each experimental group included six/eight mice bearing bilateral tumors. Tumors were implanted on day 0, and tumor growth was followed by biweekly measurements of tumor diameters with a Vernier caliper. Tumor Volume (TV) was calculated according to the following formula: TV (mm^3)=d^2 XD/2, where d and D are the shortest diameter and the longest diameter of the tumor, respectively. The drug treatment started when tumors were just measurable (Mean TV=150-200 mm^3).
(§2) All test compound/standard drugs were delivered by gavage in a volume of 10 ml/kg. Drugs were administered every day for single time to a period of 21 days. Control mice were treated with the drug solvent/vehicle. Tumor size is measured every alternate days and body weight is recorded daily.
(§3) • a) Tumor Volume Inhibition (TVI): A TVI value higher than 80% is indicative of active compounds. • b) T/C % is also another indicator for the activity. A reproducible 20% T/C is considered as therapeutically active. • c) Log Cell Kill (LCK): A LCK value greater than 1 is indicative of active compounds. • d) Relative Tumor Volume (RTV), Tumor Delay and % Tumor volume change are also considered as valuable additional parameters for assessment. • e) Toxic effects of drug treatment were assessed by Body Weight Loss % • f) Lethal toxicity was defined as any death in treated groups occurring before any control death. Mice were inspected daily for mortality and toxic clinical signs.

[2] = mouse, in vivo
Description: as §2, §3

With `COc1ccc(CNC[C@H](O)COc2cccc3[nH]c4ccccc4c23)c(OC)c1` [Example 25, (2S)-1-(9H-carbazol-4-yloxy)-3-[(2,4-dimethoxybenzyl)amino]propan-2-ol] the GI50 (HCT116 cells) was 5.6 µM, the IC (TGI) (HCT116 cells) was 48 µM and the LC50 (concentration for 50% net cell kill relative to T0) (HCT116 cells) was 79 µM. The GI50 [1] was 6.4 µM, the inhibition at 0.1 µM (IL-6; Homo sapiens, NCI-H460, 0.1 μM, NCIH 460, 5 hours) was 36% and the inhibition at 1 µM (IL-6; Homo sapiens, NCI-H460, 1 μM, NCIH 460, 5 hours) was 50.9%. For the same compound, the IC50 (IL-6; Homo sapiens, NCI-H460, NCIH 460, 5 hours, read-out: IL-6 Inhibition IC50) was 780 nM, the IL-6 inhibition (IL-6; in words) was “very good IL-6 inhibition” and the in-vivo anti-cancer activity (NCI H460 Xenograft) was “good anti-cancer activity”. The body weight loss [2] was “no body weight loss was observed”.
